# Results taken from US12589143B2, “Human anti-PD-L1 peptide vaccines and methods of their use” (priority 2019, dated 2026).
# Where no end group is shown, it is not given here.
# Assays:
# PD-1/PD-L1 interaction = target: T1, PD-1/PD-L1 interaction (Homo sapiens, UniProt Q9NZQ7); assay: PD-1/PD-L1 blockade bioassay (Promega); assay type: cell-based; conditions: antibodies from immunized rabbits, compared to Nivolumab and Atezolizumab
# T1 construct: host or cells: PD-L1 aAPC/CHO-K1 cells and PD-1 effector cells
# Method: The assay was performed following the manufacturer's protocol for the PD-1/PD-L1 blockade bioassay (Promega).
# The bioluminescent cell-based PD-1/PD-L1 blockade bioassays provide a good option for rapid screening of therapeutic antibodies or other compounds developed to interfere with PD-1-signaling interaction. PD1/PD-L1 blockade assay was used to test the functionality of 3 anti-PD-L1 antibodies. It was observed that purified polyclonal anti-PD-L1 antibody from the rabbits was able to block PD1/PD-L1 interaction similar to commercial anti-human PD-L1 antibody (FIG. 12). […] In FIG. 12, we show the capacity of each of the PD-L1 vaccines to block the PD-1:PD-L1 interaction as compared to Nivolumab and Atezolizumab. Remarkably only PD-L1 130-147 antibodies were effective
# The assay was performed following the manufacturer's protocol for the PD-1/PD-L1 blockade bioassay (Promega). In brief, 4×10^5 aAPC/CHO-K1 or PD-L1 aAPC/CHO-K1 cells were seeded into 96-well plates in RPMI-1640 with 10% FBS. After overnight culturing, the medium was aspirated, and serially diluted purified PD-L1 or PD-1 antibodies, as well as Nivolumab and Atezolizumab antibodies (as reference antibodies) were added. Next, PD-1 effector cells were co-cultured and plate was kept for 5 h at 37° C. in a humidified 5% CO2 incubator. Following mixing with Bio-Glo Reagent, the luminescence was measured with a luminescence plate reader, SpectraMax M3 plate reader (Molecular Devices).
# MVF-PD-L1 peptides = assay: Immunogenicity in rabbits: ELISA antibody titers of sera vs the immunogen; assay type: in vivo, New Zealand White rabbits; conditions: after the second boost
# Method: Immunogenicity of MVF-PD-L1 B-cell epitopes. New Zealand White rabbits were immunized with 1 mg of each MVF-peptide immunogens dissolved in dd H2O emulsified (1:1) in Montanide ISA 720 vehicle (Seppic) with 333 μg of N-acetylglucosamine-3yl-acetyl-1-alanyl-d-isoglutamine (nor-MDP). Rabbits were boosted with the same doses at 3-week's intervals. Blood was collected via the central auricular artery in rabbits. Blood was collected weekly (1Y+3, 2Y+1, 2Y+2,2Y+3, 3Y+1, 3Y+2 and sera tested for antibody titers by ELISA using the immunogens MVF-PD-L1 peptides. Sera (terminal) from rabbit (3Y+3) immunized with MVF-PD-1 peptide immunogens were tested individually versus the immunogen by ELISA. 200 ng/well peptide were used in duplicates to coat the ELISA plates. Titers are defined as the highest dilution of sera with an absorbance value of 0.2 after subtracting the blank.
# For each peptide, vaccine antibodies were raised using New Zealand white rabbits purchased from Charles River Laboratories (Wilmington, MA, USA). […] Antibody titers were monitored by direct ELISA against the peptide immunogen, the peptide B cell epitope, and an acetylated version of the B-cell epitope. […] Peptide vaccine antibodies were purified by affinity chromatography using a protein A/G column and the concentration was measured by Coomassie protein assay. […]
# [1] = Mouse antibody isotyping assay; assay type: in vivo, Balb/c mice
# Method: We also analyzed the different isotypes of antibodies being generated by vaccination.
# Antibody isotypes (i.e. IgA, IgM, IgG1, IgG2a, IgG2b, IgG3) were determined using the Mouse Typer Isotyping Kit (BIO-RAD, Hercules, CA). Briefly, wells of a 96-well assay plate were coated with 200 ng peptide antigen in ddH2O, and incubated at 4° C. overnight. The plate was washed with washing buffer (0.05% Tween-20 and 1% horse sera in PBS). The plate was then blocked with 1% BSA in PBS at room temperature for 1 hour. 100 ul of diluted mice sera was added to each well for 2 hours and after washing the wells, 100 μl ready to use rabbit anti-mouse subclasses antibodies were added to each well respectively and incubated at room temperature for another 2 hours. The wells were washed again, 100 μl of 1/3000 dilution of goat anti-rabbit conjugated to HRP antibody (BIO-RAD, Hercules, CA) was added to each well and incubated for 1 hour at room temperature in dark. The plate was then washed and 50 μl prepared substrate solution was added to each well. The reaction was stopped with 25 μl 5% SDS stopping buffer. Absorbance at 415 nm was determined using an ELISA plate reader. Dilutions of each sera samples were determined by the ELISA titers shown in absorbance of 0.4 or higher after subtracting the background.
# T1 sequence (Q9NZQ7 19-290): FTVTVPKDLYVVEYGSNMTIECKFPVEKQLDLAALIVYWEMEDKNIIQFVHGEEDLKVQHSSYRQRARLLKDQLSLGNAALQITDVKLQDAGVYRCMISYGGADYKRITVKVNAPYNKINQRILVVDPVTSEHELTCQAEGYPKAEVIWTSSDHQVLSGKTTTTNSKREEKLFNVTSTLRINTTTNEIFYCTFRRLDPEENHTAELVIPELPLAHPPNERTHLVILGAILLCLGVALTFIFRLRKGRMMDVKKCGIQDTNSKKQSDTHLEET
Sequence,blocking of PD-1/PD-L1 interaction (PD-1/PD-L1 interaction),antibody titers (MVF-PD-L1 peptides),isotypes of antibodies elicited in the mice ([1]; experiment 1 (CT26 WT)),isotypes of antibodies elicited in the mice ([1]; experiment 2 (CT26/HER-2))
KLLSLIKGVIVHRLEGVEGPSLYRCMISYGGADYKRITVK (KLLSLIKGVIVHRLEGVEGPSLYRCMISYGGADYKRITVK-NH2) [PD-L1(95)],unable to block PD-1 and PD-L1,"64,000",–,–
KLLSLIKGVIVHRLEGVEGPSLFVHGEEDLKVQHSSYRQR (KLLSLIKGVIVHRLEGVEGPSLFVHGEEDLKVQHSSYRQR-NH2) [PD-L1(50)],unable to block PD-1 and PD-L1,–,–,–
KLLSLIKGVIVHRLEGVEGPSLVTSEHELTCQAEGYPKAE (KLLSLIKGVIVHRLEGVEGPSLVTSEHELTCQAEGYPKAE-NH2) [PD-L1(130)],able to inhibit PD-1/PD-L1,"64,000",predominantly of the IgG1 class,predominantly of the IgG1 class
